Results as given in patent US20050182128A1, “Use of anethole dithiolethione in lung cancer chemoprevention” (priority 2002, published 2005).
“Also recorded” adds a separate entry of the source.

Key:
bronchial dysplasia = experiment: Phase IIb randomized placebo-controlled trial: histopathology grade of bronchial biopsies before and after six months; assay type: in vivo, human
Procedure: One hundred and one volunteer current and former smokers with ≧30 pack-years smoking history and bronchial dysplasia identified by autofluorescence bronchoscopy directed biopsies were randomly assigned to receive ADT 25 mg orally TID or placebo for six months followed by a repeat bronchoscopy and biopsy of the same sites plus any new areas suspicious of dysplasia. Changes in the histopathology grade of the biopsies were used as the primary endpoint biomarker. All P values were two-sided.
Assessment For Eligibility. Five hundred and fifty-eight current and former smokers over 40 years of age in the Greater Vancouver area with a smoking history of ≧30 pack-years were invited to take part in the study. A former smoker was defined as one who had given up smoking for a year or more. They were recruited through the community outreach network of the public relations department of the British Columbia Cancer Agency (BCCA) using television programs, radio broadcasts and local newspapers. Following an initial interview, which included a questionnaire to document the smoking history, a sputum sample was obtained by induction using simultaneous high frequency chest wall oscillation with the ABI vest (Advanced Respiratory Inc. St. Pauls, Minn.) and 3% hypertonic saline for 12 minutes. […] Of these, 262 agreed to have an autofluorescence bronchoscopy with the LIFE-Lung device (Xillix Technologies Corp., Richmond, BC, Canada) (Lam et al., 1998; Lam et al., 1999). Biopsies were taken from areas with abnormal fluorescence (Lam et al., 1998; Lam et al., 1999). In addition, at least two control biopsies were taken from an upper or lower lobe. The average number of biopsies per subject was 6.7 (range 4 to 12).
Randomization. Participants with one or more sites of bronchial dysplasia were randomly assigned to receive either Sialor® (Solvay Pharma, France) at a dose of 25 mg three times daily by mouth or its placebo for six months. The placebo tablets were identical in size, shape and color to the active drug. Randomization codes were generated by a statistician at the Population and Prevention Oncology Division of BCCA and distributed to the BCCA pharmacy. All study personnel were blinded to the study coeds. Randomization was stratified according to the smoking status (current or former smoker) and dysplasia grade (mild, moderate or severe). Once a participant met the enrollment criteria, the study nurse contacted the pharmacist who then provided the study medication according to the randomization code.
Follow Up. The participants were seen monthly for examination of drug related adverse events. Liver enzymes were measured at baseline and at months 3 and 6 for toxicity monitoring. Fluorescence bronchoscopy was repeated after 6 months of study medication. The bronchoscopist was blinded to the intervention assignment. All previously biopsied sites were identified and re-biopsied under fluorescence bronchoscopy. Biopsy was also taken from new areas with abnormal fluorescence.
The primary outcome of the study was changes in the histopathology grade of the bronchial biopsies before and after six months of intervention. The secondary endpoint was changes in the nuclear morphometry index of the bronchial biopsies.
The biopsies were fixed in buffered formalin, embedded in paraffin, sectioned and stained with hematoxylin-eosin (H&E). Two pathologists (JCL, AFG) systematically reviewed them. The pathologists were blinded to the treatment assignments. All biopsies were classified into one of seven groups. Normal: as represented by pseudostratified ciliated columnar epithelium. Basal cell hyperplasia: as represented by an increase in the number and stratification of normal-appearing basal cells still covered with normal ciliated or mucin secreting cells. Metaplasia: as represented by a stratified epithelium and cytoplasmic changes consistent with squamoid differentiation. […]

[1] = 25 mg three times daily; cited from earlier work
[2] = histopathology, lesion specific, 6 months
[3] = histopathology, person specific, of 56

Structure (SMILES): COc1ccc(-c2cc(=S)ss2)cc1 [ADT, 5-(p-methoxyphenyl)-1,2-dithiole-3-thione]
- Progression of pre-existing dysplastic lesions and/or appearance of new lesions compared to placebo (bronchial dysplasia; 6 months, 25 mg orally TID): significantly lower rate of progression; also recorded: statistically reduces the appearances of new dysplastic lesion or progression of pre-existing dysplastic lesions
- CR or PD rates, full dose compared to reduced dose (bronchial dysplasia; all P-values >0.90): no significant difference in the CR or PD rates
- Biopsies of grade 1 (normal/hyperplasia) at 6 months follow-up (bronchial dysplasia; baseline grade 1): 100
- Biopsies of grade 2 (metaplasia) at 6 months follow-up (bronchial dysplasia; baseline grade 1): 9
- Biopsies of grade 3 (mild dysplasia) at 6 months follow-up (bronchial dysplasia; baseline grade 1): 5
- Biopsies of grade 4 (moderate dysplasia) at 6 months follow-up (bronchial dysplasia; baseline grade 1): 2
- Biopsies of grade 5 (severe dysplasia) at 6 months follow-up (bronchial dysplasia; baseline grade 1): 0
- Biopsies of grade 1 (normal/hyperplasia) at 6 months follow-up (bronchial dysplasia; baseline grade 2): 22
- Biopsies of grade 2 (metaplasia) at 6 months follow-up (bronchial dysplasia; baseline grade 2): 2
- Biopsies of grade 3 (mild dysplasia) at 6 months follow-up (bronchial dysplasia; baseline grade 2): 3
- Biopsies of grade 4 (moderate dysplasia) at 6 months follow-up (bronchial dysplasia; baseline grade 2): 0
- Biopsies of grade 5 (severe dysplasia) at 6 months follow-up (bronchial dysplasia; baseline grade 2): 0
- Biopsies of grade 1 (normal/hyperplasia) at 6 months follow-up (bronchial dysplasia; baseline grade 3): 53
- Biopsies of grade 2 (metaplasia) at 6 months follow-up (bronchial dysplasia; baseline grade 3): 14
- Biopsies of grade 3 (mild dysplasia) at 6 months follow-up (bronchial dysplasia; baseline grade 3): 27
- Biopsies of grade 4 (moderate dysplasia) at 6 months follow-up (bronchial dysplasia; baseline grade 3): 6
- Biopsies of grade 5 (severe dysplasia) at 6 months follow-up (bronchial dysplasia; baseline grade 3): 0
- Biopsies of grade 1 (normal/hyperplasia) at 6 months follow-up (bronchial dysplasia; baseline grade 4): 8
- Biopsies of grade 2 (metaplasia) at 6 months follow-up (bronchial dysplasia; baseline grade 4): 0
- Biopsies of grade 3 (mild dysplasia) at 6 months follow-up (bronchial dysplasia; baseline grade 4): 2
- Biopsies of grade 4 (moderate dysplasia) at 6 months follow-up (bronchial dysplasia; baseline grade 4): 3
- Biopsies of grade 5 (severe dysplasia) at 6 months follow-up (bronchial dysplasia; baseline grade 4): 1
- Biopsies of grade 1 (normal/hyperplasia) at 6 months follow-up (bronchial dysplasia; baseline grade 5): 0
- Biopsies of grade 2 (metaplasia) at 6 months follow-up (bronchial dysplasia; baseline grade 5): 0
- Biopsies of grade 3 (mild dysplasia) at 6 months follow-up (bronchial dysplasia; baseline grade 5): 2
- Biopsies of grade 4 (moderate dysplasia) at 6 months follow-up (bronchial dysplasia; baseline grade 5): 0
- Biopsies of grade 5 (severe dysplasia) at 6 months follow-up (bronchial dysplasia; baseline grade 5): 0
- Biopsies of grade 1 (normal/hyperplasia) at 6 months follow-up (bronchial dysplasia; baseline: not sampled): 34
- Biopsies of grade 2 (metaplasia) at 6 months follow-up (bronchial dysplasia; baseline: not sampled): 8
- Biopsies of grade 3 (mild dysplasia) at 6 months follow-up (bronchial dysplasia; baseline: not sampled): 13
- Biopsies of grade 4 (moderate dysplasia) at 6 months follow-up (bronchial dysplasia; baseline: not sampled): 0
- Biopsies of grade 5 (severe dysplasia) at 6 months follow-up (bronchial dysplasia; baseline: not sampled): 1
- CR rate (bronchial dysplasia; dose reduction yes): 24%
- PD rate (bronchial dysplasia; dose reduction yes): 32%
- PR rate (bronchial dysplasia; dose reduction yes): 32%
- CR, number of participants (bronchial dysplasia; dose reduction yes, of 25): 6
- PD, number of participants (bronchial dysplasia; dose reduction yes, of 25): 8
- PR, number of participants (bronchial dysplasia; dose reduction yes, of 25): 8
- PD rate lower than placebo, person specific analysis (bronchial dysplasia; histopathology, 6 months): 22%
- Partial response (PR) rate, person specific analysis (bronchial dysplasia; histopathology, 6 months): (23%)
- Stable disease (SD) rate, person specific analysis (bronchial dysplasia; histopathology, 6 months): (18%)
- Progressive disease (PD) rate, lesion specific analysis (bronchial dysplasia; histopathology, 6 months ADT 25 mg orally TID, placebo 17%, P<0.001): 8%
- Complete response (CR) rate, lesion specific analysis (bronchial dysplasia; histopathology, 6 months, placebo 41%, P=0.14): 53%
- PD rate lower than placebo, lesion specific analysis (bronchial dysplasia; histopathology, 8% ADT versus 17% placebo): 9%
- CR rate higher than placebo, person specific analysis (bronchial dysplasia; histopathology, 27% versus 16%): 11%
- CR rate higher than placebo, lesion specific analysis (bronchial dysplasia; histopathology, 53% versus 41%, not significant): 12%
- CR lesions / dysplastic lesions at baseline (bronchial dysplasia; [2]): 61/116
- PD lesions / all biopsies (bronchial dysplasia; [2]): 24/315
- CR, number of participants (bronchial dysplasia; [3]): 15
- PD, number of participants (bronchial dysplasia; [3]): 18
- PR, number of participants (bronchial dysplasia; [3]): 13
- Association of treatment with odds of CR (bronchial dysplasia; multiple logistic regression): not significantly associated with increasing odds of CR
- OR, likelihood of progressive disease six months after intervention (bronchial dysplasia; multiple logistic regression, ADT is reference, placebo OR 3.5 (95% CI 1.3-9.3, P 0.01)): 1
- PD rate (bronchial dysplasia; no dose reduction): 32%
- PR rate (bronchial dysplasia; no dose reduction): 16%
- CR rate (bronchial dysplasia; no dose reduction (full 25 mg TID)): 29%
- CR, number of participants (bronchial dysplasia; no dose reduction (full 25 mg TID), of 31): 9
- PD, number of participants (bronchial dysplasia; no dose reduction, of 31): 10
- PR, number of participants (bronchial dysplasia; no dose reduction, of 31): 5
- Biopsies of grade 1 (normal/hyperplasia) at 6 months follow-up (bronchial dysplasia; total of all baseline grades): 217
- Biopsies of grade 2 (metaplasia) at 6 months follow-up (bronchial dysplasia; total of all baseline grades): 33
- Biopsies of grade 3 (mild dysplasia) at 6 months follow-up (bronchial dysplasia; total of all baseline grades): 52
- Biopsies of grade 4 (moderate dysplasia) at 6 months follow-up (bronchial dysplasia; total of all baseline grades): 11
- Biopsies of grade 5 (severe dysplasia) at 6 months follow-up (bronchial dysplasia; total of all baseline grades): 2
- Safety and efficacy at therapeutic dose [1]: safe and effective
